Experiment [1] has as its target trypsin-like serine proteinase. In words: Serine proteinase microplate assay, BApNA (in vitro). The conditions noted are these: fourth instar larvae midgut homogenate. The class given is biochemical, Rhynchophorus ferrugineus. As for the experimental part:
(§1) The specific activities of serine proteinase were determined using a rapid quick microplate assay with substrates in reaction mixtures (150 μL) including a serine protease assay buffer, according to […] et al. and Olga et al. with modifications. The midguts were homogenized in the assay buffer (100 mM Tris-HCl, pH 8.1) and centrifuged for 30 min at 8000 rpm (Sigma 3K 30, rotors No. 12158). […] […] (100 mg/mL in DMF), BAρNA (100 mg/mL in DMSO), and […] (100 mg/mL in DMF) stock substrates were diluted in the assay buffer to 1 mg/mL, and substrate volume was 50 μL. […] The activity was quantified using an ELISA plate reader at a wavelength of 405 nm. As an empty well, an assay combination containing a denaturation enzyme was utilized instead of an active enzyme. […] To learn more about the proteases found in homogenate preparations of R. ferrugineus fourth midgut larval instars, inhibitors from many different types of mechanisms were used. […] As a control, an assay combination devoid of inhibitors was utilized. The absorbance of the enzymes was determined using an ELISA plate quick reader at various wavelengths. The percentage activity of the control enzyme for each inhibitor was evaluated for each enzyme. […] Larvae were exposed for 24 h to leaf discs treated with extract and compounds.

The subject of the next experiment is R. ferrugineus adults. In words: whole plant or invertebrate. The settings on record: Rhynchophorus ferrugineus. As for the experimental part: (§2) The R. ferrugineus adult and larvae were acquired from an insect breeding lab at King Faisal University’s Date Palm Research Center of Excellence and grown utilizing sugarcane stem long pieces. The extracts activity against larvae was determined by using topical application method with storing larvae at 4–5 °C for 5 min. Previous serial concentrations of extract (10 µL) were applied to the dorsum of each larvae using a hand-operated micro-applicator (Burkard Manufacturing Co., Ltd., Hertfordshire, UK with a 50-ll micro-syringe (MS-N50; Ito Corp., Shizuoka, Japan). Each larva was feeding on 10 cm stem pieces of long sugarcane, with 5 larvae/box with three replicates. After topical administration, larval mortality was determined after 24, 48, 72, and 96 h to determine the LD50. Adults were tested for antifeedant effect determined using ten-centimeter-long sections of sugarcane stem divided into equal longitudinal halves. Pieces of long sections of sugarcane stem with area ~32.2 cm^2 were dipped for ten seconds in the previous serial concentration of extract (10 mL) and, then, dried in room temperature air. […] Each package received a replacement pair (male and female). Each treatment was replicated ten times. After 24, 48, 72, and 96 h, feeding observations were assayed.
(§3) Finney states that the statistical analysis and probit analysis were conducted using the SPSS 25.0 program (Statistical Package for Social Sciences, Armonk, NY, USA). Chemical components were determined by PCA using SPSS 25.0 program and presented using XLSTAT 2018.1. PCA is a clustering technique that is used to determine the relationships between samples. […] We did a mortality against dosage regression and converted the resultant median dose to an LC50 value (µg/mL). The range of LC50 was calculated with a 95 percent confidence interval using least-squares. We conducted a one-way analysis of variance on the enzyme activity data (ANOVA). The Student–Newman–Keuls (SNK) test was applied with separate means, and differences at p ≤ 0.05 were considered significant.

The test system of experiment [2] is R. ferrugineus fourth larvae. In words: Topical application (contact insecticide) on larvae. The class given is in vivo, Rhynchophorus ferrugineus. The settings on record: 4th larvae, probit analysis, 95% confidence limits in brackets. On the procedure: as §2, §3
Experiment [3] relates to elastase. In words: Elastase activity of midgut from larvae treated 24 h (in vivo). Details: species or system Rhynchophorus ferrugineus. The conditions noted are these: midgut of fourth instar larvae treated for 24 h. On the procedure:
The midguts were homogenized in the assay buffer (100 mM Tris-HCl, pH 8.1) and centrifuged for 30 min at 8000 rpm (Sigma 3K 30, rotors No. 12158). […] […] (100 mg/mL in DMF), BAρNA (100 mg/mL in DMSO), and […] (100 mg/mL in DMF) stock substrates were diluted in the assay buffer to 1 mg/mL, and substrate volume was 50 μL. […] The activity was quantified using an ELISA plate reader at a wavelength of 405 nm. As an empty well, an assay combination containing a denaturation enzyme was utilized instead of an active enzyme. […] To learn more about the proteases found in homogenate preparations of R. ferrugineus fourth midgut larval instars, inhibitors from many different types of mechanisms were used. […] As a control, an assay combination devoid of inhibitors was utilized. The absorbance of the enzymes was determined using an ELISA plate quick reader at various wavelengths. The percentage activity of the control enzyme for each inhibitor was evaluated for each enzyme. […] Larvae were exposed for 24 h to leaf discs treated with extract and compounds.

In experiment [4] the target is elastase. The experiment is described as follows: Serine proteinase microplate assay, SAAPLpNA (in vitro). The format is biochemical, Rhynchophorus ferrugineus. The conditions noted are these: fourth instar larvae midgut homogenate. On the procedure: as §1

Converted amounts (≈) assume the structure as drawn.

With `O=C(/C=C/c1ccc(O)c(O)c1)O/C=C\c1ccc(O)c(O)c1` [Nepetoidin B], the “IC50 against trypsin-like serine proteinase (in vitro)” value in experiment [1] came out at 86.7 µg/mL. Also, in the experiment with R. ferrugineus adults, the LC50 came to 1320 µg/mL (≈ 4.19 mM). For the same compound, in experiment [2], the LD50 is reported as 11.9 (11.1–12.3) µg/Larvae.

As for “dicaffeoyl-tartaric acid [Chicoric acid]”, the “IC50 against trypsin-like serine proteinase (in vitro)” value in experiment [1] is recorded as 51.6 µg/mL. In addition, the LD50 in experiment [2] is reported as 10.23 (9.87–10.94) µg/Larvae.

With `O=C(/C=C/c1ccc(O)c(O)c1)O[C@H](Cc1ccc(O)c(O)c1)C(=O)O` [Rosmarinic acid], the “IC50 against trypsin-like serine proteinase (in vitro)” value in experiment [1] is on record as 91.3 µg/mL. This compound also yielded an LC50 in the experiment with R. ferrugineus adults of 1500 µg/mL (≈ 4.15 mM). Also, the “IC50 against elastase (in vivo)” value in the experiment with elastase [3] worked out at 119.7 µg/mL. For the same compound, on elastase [4], the “IC50 against elastase (in vitro)” value is listed as 96.4 µg/mL. The LD50 in experiment [2] is on record as 12.4 (11.8–12.7) µg/Larvae.

For the compound `COc1ccc(-c2cc(=O)c3c(O)c(OC)c(OC)cc3o2)cc1` [Salvigenin, 5-Hydroxy-6,7,4′-trimethoxyflavone], in experiment [1], the “IC50 against trypsin-like serine proteinase (in vitro)” value worked out at 59.2 µg/mL. Moreover, in the experiment with R. ferrugineus adults, the 50% lethal concentration (LC50) came to 1190 µg/mL (≈ 3.62 mM). In addition, the “IC50 against elastase (in vivo)” value in the experiment with elastase [3] worked out at 138.2 µg/mL. Also, at elastase [4], the “IC50 against elastase (in vitro)” value was 105.6 µg/mL. The LD50 in experiment [2] is reported as 11.4 (10.4–11.8) µg/Larvae.

Consider `C[C@@H]1O[C@@H](OC[C@H]2O[C@@H](Oc3c(-c4ccc(O)c(O)c4)oc4cc(O)cc(O)c4c3=O)[C@H](O)[C@@H](O)[C@@H]2O)[C@H](O)[C@H](O)[C@H]1O` [Quercetin-3-O-rutinoside], for which, in experiment [1], the “IC50 against trypsin-like serine proteinase (in vitro)” value is listed as 104.5 µg/mL. Moreover, the median lethal concentration (LC50) with R. ferrugineus adults is 1210 µg/mL (≈ 1.99 mM). Also, the LD50 in experiment [2] is given as 16.9 (15.1–17.6) µg/Larvae.

Take `O=C(O)C[C@H](C(=O)O)[C@@H](O)C(=O)O` [Isocitric acid]: the 50% lethal concentration (LC50) in the experiment on R. ferrugineus adults worked out at 1830 µg/mL (≈ 9.5 mM). In addition, the LD50 in experiment [2] was 23.9 (21.1–24.6) µg/Larvae.

Broadly, the LC50 is the concentration that kills 50% of the test population. Read a low LC50 as a more lethal substance.
